# Reference: patent US10906940B2, “Antimicrobial peptides, pharmaceutical compositions, and methods of use thereof” (priority 2014, dated 2021)
# Where a SMILES comes first, the peptide text is derived from it. Bridges are numbered along the chain shown (N, C = ends). [ ]: non-standard residue; d: D form. The star is where a group is joined. Pentadecanoyl = CCCCCCCCCCCCCCC(=O)*; Tridecanoyl = CCCCCCCCCCCCC(=O)*; Undecanoyl = CCCCCCCCCCC(=O)*; dOrn = NCCC[C@@H](N)C(=O)O
# How the values were obtained:
# [1] = tested on: Enterobacter cloacae SBJ-9395; format: cell-based; conditions: SBJ-9395
# Text: (§1) The same MIC assay as in Example 6 was used to determine the antimicrobial susceptibility of Compound A, L-form (FIG. 15), and several variants. One variant was Compound A, D-form, with D-Lysine at position 7. Compound B is a variant in the fatty acid chain, with a fatty acid chain composition of C15H29O, and having D-Lys at position 7. Compound C is a variant in the fatty acid chain with a fatty acid chain composition of C11H21O, and having D-Lys at position 7. Variant D is a sequence variant with Phe at position 6 of the cyclic peptide, and having D-Lys at position 7. All variants were chemically synthesized.
# [2] = tested on: Salmonella CVM 1290 (cmy2); format: cell-based
# Text: as §1
# [3] = tested on: Salmonella CVM 40118 (oxa-1); format: cell-based
# Text: as §1
# [4] = tested on: Salmonella CVM 40119 (tem 12); format: cell-based
# Text: as §1
# [5] = tested on: Serratia marcescens SAMN 04276914; format: cell-based; conditions: SAMN 04276914
# Text: as §1
# [6] = tested on: Serratia marcescens SAMN 04276915; format: cell-based; conditions: SAMN 04276915
# Text: as §1
# [7] = tested on: Serratia marcescens SAMN04022954; format: cell-based; conditions: SAMN04022954
# Text: as §1
# [8] = tested on: Serratia marcescens SBJ-8283; format: cell-based; conditions: SBJ-8283
# Text: as §1
# [9] = tested on: Serratia marcescens SBJ-9047; format: cell-based; conditions: SBJ-9047
# Text: as §1
# E. faecalis BAA-2365 = assay: microbe, parasite or virus in culture; format: cell-based, Enterococcus faecalis; conditions: BAA-2365
# [10] = tested on: S. Bareilly CVM40145 (ACC-1); format: cell-based, Salmonella
# Text: as §1
# [11] = tested on: S. Heidelberg CVM 40140 (cmy-2); format: cell-based, Salmonella
# Text: as §1
# [12] = tested on: S. Keur massar CVM 40135 (shv12); format: cell-based, Salmonella
# Text: as §1
# [13] = tested on: S. Newport CVM 40115 (cmy 2); format: cell-based, Salmonella
# Text: as §1
# [14] = tested on: S. Typhimurium CVM 40117 (ctx-m-5); format: cell-based, Salmonella
# Text: as §1
# [15] = tested on: P. aeruginosa CVM 40144 (PER-1); format: cell-based, Pseudomonas aeruginosa
# Text: as §1
# [16] = tested on: carbapenem-resistant (CRE) strains and MRSA strains; assay: Broth microdilution MIC, summary of spectrum; format: cell-based
# E. coli ATCC 25853 = conditions: ATCC 25853
# [17] = tested on: Enterobacter sakazakii E784
# [18] = tested on: Klebsiella pneumoniae SBJ-9149; conditions: SBJ-9149
# [19] = tested on: Enterobacter cloacae SBJ-7612; conditions: SBJ-7612
# [20] = tested on: Klebsiella pneumoniae SBJ-9483; conditions: SBJ-9483
# [21] = tested on: Klebsiella pneumoniae SBJ-9388; conditions: SBJ-9388
# [22] = tested on: Enterobacter cloacae SBJ-9222; conditions: SBJ-9222
# P. aeruginosa ATCC-27853 = conditions: ATCC-27853
# [23] = tested on: Listeria monocytogenes R2-583
compound,measurement,setting,value
CCCCCCCCCCCCC(=O)N[C@H](CCCN)C(=O)N[C@H](C(=O)N[C@@H]1C(=O)N[C@H](CCCN)C(=O)N[C@@H](CO)C(=O)N[C@@H](Cc2ccccc2)C(=O)N[C@H](CCCCN)C(=O)N[C@H](CO)C(=O)N[C@@H]([C@@H](C)CC)C(=O)N2CCC[C@H]2C(=O)N[C@@H]([C@@H](C)CC)C(=O)N2CCC[C@H]2C(=O)N[C@@H]([C@@H](C)CC)C(=O)O[C@@H]1C)C(C)C [Variant D] (Tridecanoyl-[dOrn]VT[dOrn]SF[dK][dS]IPIPI; ester 3-C; N-terminus assumed),MIC,[1],32 µg/mL
same,MIC,[2],8 µg/mL
same,MIC,[3],8 µg/mL
same,MIC,[4],8 µg/mL
same,MIC,[5],64 µg/mL
same,MIC,[6],≥128 µg/mL
same,MIC,[7],≥128 µg/mL
same,MIC,[8],32 µg/mL
same,MIC,[9],≥128 µg/mL
same,MIC,E. faecalis BAA-2365,8 µg/mL
same,MIC,[10],32 µg/mL
same,MIC,[11],16 µg/mL
same,MIC,[12],16 µg/mL
same,MIC,[13],8 µg/mL
same,MIC,[14],8 µg/mL
same,MIC,[15],16 µg/mL
CCCCCCCCCCCCCCC(=O)N[C@H](CCCN)C(=O)N[C@H](C(=O)N[C@@H]1C(=O)N[C@H](CCCN)C(=O)N[C@@H](CO)C(=O)N[C@@H](Cc2ccc(O)cc2)C(=O)N[C@H](CCCCN)C(=O)N[C@H](CO)C(=O)N[C@@H]([C@@H](C)CC)C(=O)N2CCC[C@H]2C(=O)N[C@@H]([C@@H](C)CC)C(=O)N2CCC[C@H]2C(=O)N[C@@H]([C@@H](C)CC)C(=O)O[C@@H]1C)C(C)C [Compound B] (Pentadecanoyl-[dOrn]VT[dOrn]SY[dK][dS]IPIPI; ester 3-C; N-terminus assumed),MIC,[1],16 µg/mL
same,MIC,[2],16 µg/mL
same,MIC,[3],4 µg/mL
same,MIC,[4],8 µg/mL
same,MIC,[5],64 µg/mL
same,MIC,[6],≥128 µg/mL
same,MIC,[7],≥128 µg/mL
same,MIC,[8],32 µg/mL
same,MIC,[9],≥128 µg/mL
same,MIC,E. faecalis BAA-2365,4 µg/mL
same,MIC,[10],32 µg/mL
same,MIC,[11],16 µg/mL
same,MIC,[12],32 µg/mL
same,MIC,[13],16 µg/mL
same,MIC,[14],16 µg/mL
same,MIC,[15],32 µg/mL
CCCCCCCCCCCCC(=O)N[C@H](CCCN)C(=O)N[C@H](C(=O)N[C@@H]1C(=O)N[C@H](CCCN)C(=O)N[C@@H](CO)C(=O)N[C@@H](Cc2ccc(O)cc2)C(=O)N[C@@H](CCCCN)C(=O)N[C@H](CO)C(=O)N[C@@H]([C@@H](C)CC)C(=O)N2CCC[C@H]2C(=O)N[C@@H]([C@@H](C)CC)C(=O)N2CCC[C@H]2C(=O)N[C@@H]([C@@H](C)CC)C(=O)O[C@@H]1C)C(C)C [Compound A L-form] (Tridecanoyl-[dOrn]VT[dOrn]SYK[dS]IPIPI; ester 3-C),MIC,[2],8 µg/mL
same,MIC,[3],4 µg/mL
same,MIC,[4],8 µg/mL
same,MIC,[5],64 µg/mL
same,MIC,[6],≥128 µg/mL
same,MIC,[7],≥128 µg/mL
same,MIC,E. faecalis BAA-2365,8 µg/mL
same,MIC,[10],16 µg/mL
same,MIC,[11],16 µg/mL
same,MIC,[12],16 µg/mL
same,MIC,[13],8 µg/mL
same,MIC,[14],8 µg/mL
same,MIC,[15],32 µg/mL
same,sensitivity of bacteria compared with paenibacterin of US2013/0164317,[16]; comparison in words,much greater sensitivity
same,activity against CRE strains and MRSA strains,[16]; summary of Table 6,very potent activity
same,MIC,E. coli ATCC 25853,4 µg/mL
same,MIC,Salmonella Newport #17,16 µg/mL
same,MIC,[17],8 µg/mL
same,MIC,E. coli O157: H7 EDL933,4 µg/mL
same,MIC,[18],4 µg/mL
same,MIC,[19],4 µg/mL
same,MIC,[20],4 µg/mL
same,MIC,[21],4 µg/mL
same,MIC,[22],8 µg/mL
same,MIC,P. aeruginosa ATCC-27853,8 µg/mL
same,MIC,P. aeruginosa SBJ-10884,4 µg/mL
same,MIC,P. aeruginosa -03,8 µg/mL
same,MIC,P. aeruginosa -02,8 µg/mL
same,MIC,P. aeruginosa -01,8 µg/mL
same,MIC,P. aeruginosa SBJ-10886,4 µg/mL
same,MIC,E. faecalis ATCC 29212,4 µg/mL
same,MIC,[23],2 µg/mL
same,MIC,S. aureus ATCC25923,2 µg/mL
same,MIC,S. aureus ATCC 29213,4 µg/mL
CCCCCCCCCCC(=O)N[C@H](CCCN)C(=O)N[C@H](C(=O)N[C@@H]1C(=O)N[C@H](CCCN)C(=O)N[C@@H](CO)C(=O)N[C@@H](Cc2ccc(O)cc2)C(=O)N[C@H](CCCCN)C(=O)N[C@H](CO)C(=O)N[C@@H]([C@@H](C)CC)C(=O)N2CCC[C@H]2C(=O)N[C@@H]([C@@H](C)CC)C(=O)N2CCC[C@H]2C(=O)N[C@@H]([C@@H](C)CC)C(=O)O[C@@H]1C)C(C)C [Compound C] (Undecanoyl-[dOrn]VT[dOrn]SY[dK][dS]IPIPI; ester 3-C; N-terminus assumed),MIC,[1],8 µg/mL
same,MIC,[2],16 µg/mL
same,MIC,[3],4 µg/mL
same,MIC,[4],8 µg/mL
same,MIC,[5],64 µg/mL
same,MIC,[6],≥128 µg/mL
same,MIC,[7],64 µg/mL
same,MIC,[8],32 µg/mL
same,MIC,[9],64 µg/mL
same,MIC,E. faecalis BAA-2365,32 µg/mL
same,MIC,[10],16 µg/mL
same,MIC,[11],16 µg/mL
same,MIC,[12],16 µg/mL
same,MIC,[13],16 µg/mL
same,MIC,[14],16 µg/mL
same,MIC,[15],16 µg/mL
CCCCCCCCCCCCC(=O)N[C@H](CCCN)C(=O)N[C@H](C(=O)N[C@@H]1C(=O)N[C@H](CCCN)C(=O)N[C@@H](CO)C(=O)N[C@@H](Cc2ccc(O)cc2)C(=O)N[C@H](CCCCN)C(=O)N[C@H](CO)C(=O)N[C@@H]([C@@H](C)CC)C(=O)N2CCC[C@H]2C(=O)N[C@@H]([C@@H](C)CC)C(=O)N2CCC[C@H]2C(=O)N[C@@H]([C@@H](C)CC)C(=O)O[C@@H]1C)C(C)C [Compound A D-form] (Tridecanoyl-[dOrn]VT[dOrn]SY[dK][dS]IPIPI; ester 3-C),MIC,[1],8 µg/mL
same,MIC,[2],8 µg/mL
same,MIC,[3],4 µg/mL
same,MIC,[4],16 µg/mL
same,MIC,[5],32 µg/mL
same,MIC,[6],64 µg/mL
same,MIC,[7],32 µg/mL
same,MIC,[8],16 µg/mL
same,MIC,[9],32 µg/mL
same,MIC,E. faecalis BAA-2365,8 µg/mL
same,MIC,[10],8 µg/mL
same,MIC,[11],16 µg/mL
same,MIC,[12],16 µg/mL
same,MIC,[13],8 µg/mL
same,MIC,[14],8 µg/mL
same,MIC,[15],16 µg/mL
